“Also recorded” adds a separate entry of the source.
Tests used:
[1] = molecular target: T1, NS3 protease (Hepatitis C virus genotype 1a, UniProt P26664, A1066T/DELINS1218-1635AV/I1179L/T1080A); type: cell-based; settings: Cho-K1 UAS H2B-Citrine line expressing DBGal4-NS3-TAGal4; drug ~24 hours; flow cytometry (FIG. 18)
[2] = molecular target: T1, NS3 protease; type: cell-based; settings: DBGal4-NS3-TAGal4, anti-HA western; intact TF undetectable in untreated controls
[3] = tested on: CXCR4; test: dCas9-NS3-NLS/VPR drug-induced gene upregulation (flow cytometry); type: cell-based, human; settings: dCas9-NS3-NLS/VPR with sgRNA
Procedure: FIGS. 16A-16E show drug-control over endogenous gene expression using dCas9-NS3-NLSNPR. FIG. 16A Schematic depiction of the drug-inducible stabilization and nuclear localization of dCas9-NS3-NLSNPR. […] An unfused dCas9 domain (160 kDa) is produced in the absence of drug. FIG. 16C Immunostained HeLa cells showing the subcellular localization of the dCas9 domain in the presence or absence of 3 μM BILN-2061. […] FIG. 16D Schematic of the time-dependent dye labeling strategy used to analyze cells expressing SNAP-dCas9-NS3-NLSNPR (top), and corresponding fluorescence images of dye-labeled HeLa cells (bottom). […] Expression of the chemokine receptor was analyzed by staining of cells anti-CXCR4 antibody followed by quantification via flow cytometry.
FIG. 22 sgRNAs targeting the CXCR4 promoter were co-transfected into HEK 293FT alongside DNAs encoding either dCas9-VPR, or dCas9-NS3-NLS/VPR. The extent of CXCR4 upregulation was subsequently quantified by flow cytometry using a fluorescently-labeled anti-CXCR4 antibody. […]
For expression analyses carried out using dCas9-based TFs, HEK 293FT cells were seeded in 48-well plates and transfected at a density of […] cells per well. […] Expression of the chemokine receptor was analysed via flow cytometry using a fluorescently-conjugated CXCR-4 antibody; geometric means were recorded.

[4] = tested on: human Notch1; test: Dll1-NS3-mCherry ligand presentation and sender/receiver coculture Notch signaling; type: cell-based; settings: 1.5 μM BILN-2061
Excerpt: FIG. 17C Immunofluorescence staining of fixed (non-permeabilized) cells expressing Dll1-NS3-mCherry. […] FIG. 17D Schematic depiction of trans-cellular signaling between Notch “receiver” cells by Dll1-NS3-mCherry expressing “sender” cells in the absence and presence of drug. FIG. 17E Fluorescence images of cocultured sender and receiver cells. Sender cells expressed the Dll1-NS3-mCherry ligand. Receiver cells constitutively expressed human Notch1 and H2B-Cerulean, and conditionally expressed H2B-Citrine upon up Notch activation. […] The interface between sender and receiver cells colonies is denoted by the white dotted line. FIG. 17F Magnified region from the inset shown in (17E) shown as an overlay with the corresponding transmitted light image.
FIGS. 25A and 25B show images of Dll1-NS3/4A-mCherry mediated cell-cell signaling captured by epifluorescence imaging under 10× magnification. FIG. 25A Sender cells expressing the Dll1-NS3/4A ligand are cultured with receiver cells expressing the Notch transmembrane receptor. Receiver cell population is identified by a constitutively expressed H2B-Cerulean. Notch activation drives reporter activity of H2B-Citrine. Cells are cultured together with or without 1.5 μM BILN-2061 drug for 72 hours before imaging. FIG. 25B […]

[5] = molecular target: T1, NS3 protease; type: cell-based; settings: 3 μM BILN-2061
[6] = molecular target: T1, NS3 protease; type: cell-based; settings: increasing concentration of BILN-2061; 100 ng/mL doxycycline
[7] = molecular target: T1, NS3 protease; type: cell-based; settings: for stabilization of full-length dCas9-NS3 TF (immunoblot): drug-treated versus untreated cells
[8] = tested on: HEK 293FT cells; test: SynNotch background (leaky) activation, SN versus SN-LWF core, HEK 293FT cells; type: cell-based, human
Procedure: FIGS. 31A-31C show reduction of SynNotch leakiness by incorporation of the juxtamembrane LWF motif (FIG. 31A) Schematic of the Notch TMD and LWF motif, slightly modified from to highlight the difference between the original SynNotch core's C-terminus and the modified SynNotch core's C-terminus, where 10 amino acids are added to include the LWF motif (FIGS. 31B and 31C) anti-FITC SynNotch receptors containing SN or SN-LWF as the core domain are expressed and tested in HEK 293FT cells. Cells are either plated on fibronectin alone to test background activation (dashed lines) or on fibronectin with BSA-FITC to activate the receptors (solid lines). FIG. 31A discloses SEQ ID NO: 70. […] Values shown are the percentage of cells in the ON state for each case.
Data herein provides preliminary evidence that inclusion of the LWF motif reduces background activation in SynNotch receptors. In initial experiments, the original SynNotch core design (SN) was compare with a SynNotch core containing the LWF motif (SN-LWF) (FIG. 31A). Each receptor core was test with two different transcription factor intracellular domains (ICD's): Gal4 fused to VP64 (“VP64,” a modest transcriptional activator commonly used in SynNotch) and Gal4 fused to VPR (“VPR,” a strong transcriptional activator, whose strength is penalized by high background activation in SynNotch constructs). […]

[9] = tested on: HEK 293FT cells; test: Tension Gauge Tether (TGT) assay of Notch/SynNotch receptor activation; type: cell-based, human; settings: mCherry reporter, flow cytometry
Excerpt: FIG. 5A-5E depict the use of ruptureable double-stranded DNA tethers. […] One strand of the TGT attaches to a rigid plate through biotin-avidin binding, while the other presents a ligand. The TGT ruptures at a defined force, determined by the orientation of the ligand and the biotin. If the TGT is weaker than the force required to activate the Notch receptor, it ruptures before the LNR domains can be displaced. If it is stronger, the LNR domains are displaced and activation occurs.
(FIG. 33A) TGTs are double stranded-DNA tethers that rupture at defined forces. One strand of the TGT attaches to a rigid plate, and the other presents a ligand for cells to bind. In this case, the ligand used is fluorescein, which interacts with an αFITC SynNotch. If the tension tolerance of the TGT is weaker than that of the NRR, the TGT will break before the NRR can open. If it is stronger, the NRR domain will unravel, and Notch activation will occur, as visualized by expression of an H2B-mCherry reporter gene.

COc1ccc2c(O[C@@H]3C[C@H]4C(=O)N[C@]5(C(=O)O)C[C@H]5/C=C\CCCCC[C@H](NC(=O)OC5CCCC5)C(=O)N4C3)cc(-c3csc(NC(C)C)n3)nc2c1 [BILN-2061]
expression of the H2B-Citrine reporter protein [1]: capable of inducing robust transcriptional responses
BILN-2061 concentration at which TF stabilization was shown (enhanced detection) [2]: 0.08 µM
upregulation of gene targets (UAS H2B-Citrine reporter, CXCR4) [3]: induce upregulation of both gene targets in a dose-dependent manner
Notch activation of receiver cells (H2B-Citrine) in coculture ([4]; Dll1-NS3-mCherry sender cells): Activated receiver cells were observed only in cocultures treated with drug
surface presentation of Dll1 extracellular region ([4]; fixed non-permeabilized cells expressing Dll1-NS3-mCherry): Surface presentation of the Dll1 extracellular region was induced
preservation of intact turn-off TF proteins (western blot) [5]: Intact proteins were preserved
regulation of TRE BFP and UAS H2B-Citrine reporters [6]: induced concurrent TRE BFP activation and UAS H2B-Citrine repression
nuclear localization of dCas9 domain ([7]; HeLa cells, 3 μM BILN-2061): Nuclear localized dCas9 was observed only in drug treated cells
stabilization of full-length dCas9-NS3 TF (immunoblot) [7]: preservation of full-length dCas9-NS3-NLSNPR copies

C[C@H](NC(=O)Cc1cc(F)cc(F)c1)C(=O)N[C@H](C(=O)OC(C)(C)C)c1ccccc1 [DAPT]
effect on leaky SynNotch receptor activation [8]: suppress leaky receptor activation

COc1ccc2c(O[C@@H]3C[C@H]4C(=O)N[C@]5(C(=O)O)C[C@H]5/C=C\CCCCC[C@H](NC(=O)OC5CCCC5)C(=O)N4C3)cc(-c3csc(NC(C)C)n3)nc2c1 [ciluprevir]
stabilization of full-length dCas9-NS3 TF (immunoblot) [7]: dCNV is stabilized

CC(C)(C)OC(=O)N[C@H]1CCCCC/C=C\[C@@H]2C[C@@]2(C(=O)NS(=O)(=O)C2CC2)NC(=O)[C@@H]2C[C@@H](OC(=O)N3Cc4cccc(F)c4C3)CN2C1=O [danoprevir]
expression of the H2B-Citrine reporter protein [1]: capable of inducing robust transcriptional responses

B1: WT NRR: "Notch's force-sensitive Negative Regulatory Region, which contains three LNR domains" (protein, listed as Homo sapiens)
chain: ILDYSFGGGAGRDIPPPLIEEACELPECQEDAGNKVCSLQCNNHACGWDGGDCSLNFNDPWKNCTQSLQCWKYFSDGHCDSQCNSAGCLFDGFDCQRAEGQCNPLYDQYCKDHFSDGHCDQGCNSAECEWDGLDCAEHVPERLAAGTLVVVVLMPPEQLRNSSFHFLRELSRVLHTNVVFKRDAHGQQMIFPYYGREEELRKHPIKRAAEGWAAPDALLGQVKASLLPGGSEGGRRRRELDPMDVRGSIVYLEIDNRQCVQASSQCFQSATDVAAFLGALASLGSLNIPYKIEAVQSETVEPPPPAQ
receptor activation on TGTs of defined strength [9]: activated by both 12 pN and 56 pN TGTs; also recorded: responding identically to all mechanical stimuli

Reference: patent US10858443B2, “Synthetic notch protein for modulating gene expression” (TRUSTEES OF BOSTON UNIVERSITY, priority 2017, dated 2020)
